The record followed here is patent publication US20060111368A1, “Phosphodiesterase inhibitor” (Kyowa Hakko Kogyo Co., Ltd., priority 2002, published 2006).

For test [1], the system named is MDA-MB-231 (human breast cancer cell). The test can be described thus: Cell growth inhibitory activity (MTT-type colorimetric assay). It is filed as cell-based. Particulars: MDA-MB-231, 72 h, 10 μmol/L, 3 days of culture. As for the experimental part: Cell Growth Inhibitory Activity
Cell growth inhibitory activity of compound 12 was examined on MDA-MB-231 (human breast cancer cell: American Type Culture Collection) using an in-vitro cell growth assay [3-(4,5-dimethylthiazol-2-yl)-2,5-diphenyl tetrazolium bromide (MTT)]-type calorimetric assay [Leukemia, vol. 7, p. 1637, (1993)].
MDA-MB-231 (2.5×10^4 cells/mL, 270 μL) was inoculated on a 48-well plate, and cultured overnight. In the culture, Leibovitz's L-15 (Gibco) containing. 10% fetal calf serum (Hi-Clone), 0.05 units/mL of penicillin (Gibco) and 0.05 μg/mL of streptomycin (Gibco) was used as a culture medium. 30 μL of compound 12 dissolved in the same medium containing 0.1% dimethyl sulfoxide (DMSO; Wako Pure Chemical Industries) was added to each well. After 3 days of culture, 30 μL of MTT (Dojin Kagaku Kenkyusho, adjusted to a concentration of 5 mg/mL with PBS) was added to each well. After 4 hours of culture, 900 μL of DMSO was added to dissolve the cells. The cell solution was moved to a 96-well plate in amounts of 200 μL each, and fluorescence intensity OD590-630was measured with an automated microplate reader EL340 (Biotech Instruments). […] (medium containing 0.1% DMSO alone was added) and OD (blank) is fluorescence intensity (OD590-630) of the same medium containing 0.1% DMSO. […]

In test [2] the test system is 6-hydroxydopamine (6OHDA)-treated rats. The test can be described thus: Test for activity to hyperkinesia in 6-hydroxydopamine (6OHDA)-treated rats. Particulars: 50 mg/kg test compound intraperitoneally, then L-DOPA 30 mg/kg and benserazide 7.5 mg/kg orally; vehicle group 1,298±193; 180° rotation = 1 count. The test is classed as in vivo, rat. How it is done: Test for Activity to Hyperkinesia in 6-hydroxydopamine (6OHDA)-Treated Rats
When the unilateral nigrostriatal pathway is lesioned with 6-OHDA, sensitivity of dopamine receptors in the striatum on the lesioned side is increased. When a dopamine activity enhancing substance such as L-DOPA is administered thereto, a rotating behavior takes place on the side opposite to the lesioned side. This animal model has been long positioned as an excellent test model of Parkinson's disease, and has been used for research of therapeutic agent for Parkinson's disease [Neurol. Neurobiol. vol. 33, p. 1 (1987)]. […]
After withdrawal of the administration of apomorphine for 14 days, L-DOPA and bensetazide were orally administered to the rats at doses of 100 mg/kg and 25 mg/kg respectively to induce hyperkinesia. At this time, the number of rotations was measured for 60 minutes immediately after the administration. […]
After 7 days from the dividing into groups, the number of rotations for 60 minutes was measured by similar manner as that of above-mentioned. […] Immediately after the administration, 30 mg/kg of L-DOPA and 7.5 mg/kg of benserazide were orally administered to A and B groups, and the number of rotations for 60 minutes was measured every 5 minutes. […]

Each structure is given as a SMILES string. Structures can show the parent of a compound that is named as a salt.

A word on the inhibition: it is the change of the read-out against control, counted positive when it falls. Lower therefore signals a response near the control.

Compound `Cc1c(-c2ccc(-c3ccccc3CN3CCOCC3)cc2)nc2ccc(F)cc2c1CO` [Compound 12, 6-Fluoro-4-hydroxymethyl-3-methyl-2-(2′-morpholinomethylbiphenyl-4-yl)quinoline dihydrochloride] returned an inhibition at 10 µM in test [1] of 39%. Moreover, the “total number of rotations for 60 minutes” value in test [2] came out at 48±20.
